Assay type in all cases: cell-based, human
Series [1] relates to MMP-3. Kind of series: TNF-α induced MMP-3 protein expression in T98G cells (ELISA). The settings on record: 10, 25 and 50 μg/ml 18 hr, then TNF-α 10 ng/ml 24 hr, FIG. 17. Here is the method: T98G cells were pretreated with different batches of ethanol extract of C. versicolor for 18 hr, and then treated with recombinant human TNF-α (10 ng/ml) for another 24 hr. Protein levels of MMP-3 in the cell culture supernatants were analyzed by enzyme-linked immunosorbent assays (ELISA) using commercially available assay kits (R&D Systems).

In series [2] the test system is Glioblastoma (T98G) cells. Kind of series: Matrigel Invasion Chamber tumor cell invasion assay, T98G. As to conditions: 25 μg/ml 18 hr, invasion 24 hr; FIG. 22. The procedure:
Cell invasiveness was studied using BD BioCoat™ Matrigel™ Invasion Chamber (BD Biosciences). T98G cells suspended in MEM containing 1% FBS, 1% penicillin-streptomycin and 1% sodium pyruvate were seeded overnight on top of gel in each chamber. Bicarbonate based culture medium was added into the bottom wells of the plate. After incubation, the cells were treated with ethanol extract of C. versicolor/Cove-1 for 18 hr. The chambers were then transferred to a new plate with each well containing MEM supplemented with 10% FBS. Cells were allowed to invade through the matrices at 37° C. for another 24 hr. After the invasion assay, invaded cells on the lower surface of the chamber were fixed with 100% methanol for 2 min, and stained with Crystal Violet. The number of invading cells was quantified by counting under a light microscope.
Specifically, the effect of C. versicolor on cancer cell invasiveness was studied using a Matrigel Invasion Chamber. […] The number of invading cells was quantified by counting under a light microscope.
Specifically, the effect of 9-KODE methyl ester on cell invasiveness was studied using Matrigel Invasion Chamber. Glioblastoma (T98G) cells were treated with 9-KODE methyl ester for 18 hr, and then the cells were allowed to invade through the matrices for another 24 hr. The number of invading cells was quantified by counting under a light microscope.

Series [3] deals with MMP-3. Description: TNF-α induced MMP-3 mRNA level in T98G cells (TaqMan). As to conditions: 10, 25 and 50 μg/ml 18 hr, then TNF-α 10 ng/ml 3 hr, FIG. 16. The procedure: Glioblastoma (T98G, brain cells) cells were pretreated with different batches of ethanol extract or purified compounds of C. versicolor for 18 hr, and then treated with recombinant human TNF-α (10 ng/ml) for another 3 hr. Total RNA extraction was performed by TRIzol reagent (Invitrogen) according to the manufacturer's instructions. Total RNA was reverse transcribed by Superscript II reverse transcriptase (Invitrogen) with oligo (dT) primers. MMP-3 mRNA levels were analyzed by TaqMan Gene Expression Assays (Applied Biosystems).
Briefly, glioblastoma (T98G; brain cells) cells were pretreated with MPUB-EtOH at different concentrations (1, 10 and 50 ug/ml) for 18 hrs, and then treated with recombinant human TNFα (10 ng/ml) for 3 hrs. MMP-3 mRNA levels were analyzed by TaqMan Gene Expression Assays. […] A p value of <0.05 (*) was considered statistically significant.

For series [4], the system named is T98G cells. Description: MTT assay on T98G cells. As to conditions: 10, 25 and 50 μg/ml, time course of 48 hr, FIG. 19. Here is the method: T98G cells were incubated with different batches of ethanol extract or purified compounds of C. versicolor for 48 hr. After treatment, MTT (3-[4,5-dimethylthiazol-2-yl]-2,5-di-phenyltetrazolim bromide) (Sigma) was added to the medium at a final concentration of 1 mg/ml and followed by 2 hr incubation at 37° C. MTT formazan formed was then dissolved in 200 μl of isopropanol and the absorbance of the supernatant was measured at 570 nm using a 96-well microplate reader.
For orientation: Formazan colour is commonly taken as a measure of viable cells.

The values that follow come from patent US9861604B2, “Coriolus versicolor extracts, methods of isolating biologically-active compounds, and uses thereof” (priority 2012, dated 2018).

Turning to `CCCCC/C=C/C=C/C(=O)CCCCCCCC(=O)OC` [Cove-1, 9-oxo-10E,12E-octadecadienoic acid methyl ester], in series [1], the “TNF-α induced MMP-3 protein expression” value is “inhibited TNF-α induced MMP-3 protein expression”. In series [2], the “T98G cell invasiveness (number of invading cells)” value is “reduced the invasiveness of T98G significantly”. The “TNF-α induced MMP-3 mRNA level” value in series [3] was “suppressed TNF-α induced MMP-3 mRNA level”. For the same compound, the “metabolic activities of the cells (MTT)” value in series [4] is on record as “no significant differences in the metabolic activities”.
